# Data from patent EP1148124A1 (priority 1999, dated 2000).
# Where two headings read alike, the source gives them in different places.
# Experiments:
# [1] = test system: aryl hydrocarbon receptor; test: Luciferase assay for clone selection (Example 2), firefly luciferase ligand responsive reporter gene
# [2] = test system: Ah receptor; test: Reporter assay (No. 2), ligand responsive reporter gene (firefly luciferase, pGV-Ya-XREx5), clone of Example 3; assay type: cell-based, mouse
# [3] = Reporter assay (No. 2), cell number reporter gene (sea pansy luciferase, pRL-TK), clone of Example 3; assay type: cell-based; conditions: mouse, hepa1c1c7 cells
# Protocol: For the measured values of the amount of expression of the cell number reporter gene, a ratio is determined of the measured value in the test substance added group to the measured value in the only solvent added group (control group). When the ratio is, for example, in the range of 0.8 to 1.2, the measured value of the amount of expression of the ligand responsive reporter gene in the test substance added group is selected for evaluating the agonist or antagonist activity of the test substance against the ability of a ligand responsive transcriptional regulatory factor to promote transcription. When the ratio takes a small value such as smaller than 0.8, for example, it is possible that the test substance has cytotoxicity. In contrast, when the ratio takes a large value such as greater than 1.2, for example, it is possible that the test substance has activity against the transcriptional regulatory system of a gene without mediation of a ligand responsive transcriptional regulatory factor. However, the range of this ratio suitable for selecting the measured value of the amount of expression of the […] reporter gene may vary depending on certain properties of the present cells used and the conditions of measurement, and it is not limited to the above examples of numerical values.
# Separately, the ligand responsive reporter gene containing plasmid pGV-Ya-XREx5 constructed in Example 1 was digested with Bam HI. Further, the cell number reporter gene containing plasmid pRL-TK (marketed by Toyo Ink) was digested with Bam HI, and the neomycin resistance (aminoglycoside phosphotransferase) gene containing plasmid pRc/RSV (available from INVITROGEN) was digested with Hind III. These three digested plasmids, i.e., Bam HI digested pGV-Ya-XREx5 (5.6 µg), Bam HI digested pRL-TK (5.6 µg), and Hind III digested pRc/RSV (1 µg), were mixed with 600 µl of αMEM medium (mixture C), while 72 µl of lipofectin (available from GIBCO-BRL) was mixed with 600 µl of αMEM medium (mixture D). After being left at room temperature for 30 minutes, mixtures C and D were combined together and left at room temperature for 10 minutes. After the Hepalclc7 cells cultured overnight as described above were then washed once with αMEM medium, there was added a half volume of a solution prepared by adding and mixing additional 10.8 ml of αMEM medium into the above mixture (C + D). Culturing of the resulting mixture was carried out for 5 hours. The medium was then replaced with 10% serum containing αMEM medium, followed by further culturing for 2 days. Subsequently, the cells were scratched from the petri dishes and collected, and the collected cells were suspended in 10% serum containing αMEM medium to have the total volume of 100 ml. The resulting cell suspension was plated on 96-well plates at a ratio of 100 µl/well. After these plates were cultured overnight, a medium prepared by dissolving G418 in 10% serum containing αMEM medium to have a concentration of 3.2 mg/ml was added at a ratio of 100 µl/well (G418 final concentration 1.6 mg/ml). Culturing was further continued, during which the medium was replaced with 10% serum containing αMEM medium containing 800 µg/ml G418 at a rate of once per 4 to 5 days. The volume of the medium was set at 200 µl/well. […] To the first plate, only DMSO was added (solvent control), and to the second plate, 3-MC dissolved in DMSO was added so that the final concentration of 3-MC in the second plate came to 2 µm per well. The first and second plates were then cultured overnight. In this case, the DMSO or the solution of 3-MC in DMSO was added so that the final concentration of DMSO in each well came to 0.04%. The third plate was further cultured as the master plate. From each well of each plate, to which DMSO or 3-MC had been added, the medium was removed, and the wells were washed twice with PBS(-). […]
# [4] = final conc. 1 nM, about 6 hours
# [5] = final conc. 10 nM, about 6 hours
# [6] = final conc. 100 nM, about 6 hours
# [7] = final conc. 1000 nM, about 6 hours
# [8] = final conc. 10000 nM, about 6 hours
# [9] = final conc. 50000 nM, about 6 hours
compound,measurement,setting,value
"Cc1ccc2cc3c(ccc4ccccc43)c3c2c1CC3 [3-MC, 3-methylcholanthrene]",increase in the expression of the firefly luciferase gene by the addition of 3-MC,[1],about 10 times
"c1ccc2c(c1)cc1ccc3cccc4ccc2c1c34 [Benzo[a]pyrene, benzo[a]pyrene]",Amount of luminescence by firefly luciferase (from pGV-Ya-XREx5) Measured value,[2]; [4],0.414 x 10^2
same,Amount of luminescence by firefly luciferase (from pGV-Ya-XREx5) Ratio,"[2]; final conc. 1 nM, about 6 hours, ratio to 0 nM",1.7
same,Amount of luminescence by firefly luciferase (from pGV-Ya-XREx5) Measured value,[2]; [5],0.928 x 10^2
same,Amount of luminescence by firefly luciferase (from pGV-Ya-XREx5) Ratio,"[2]; final conc. 10 nM, about 6 hours, ratio to 0 nM",3.7
same,Amount of luminescence by firefly luciferase (from pGV-Ya-XREx5) Measured value,[2]; [6],1.72 x 10^2
same,Amount of luminescence by firefly luciferase (from pGV-Ya-XREx5) Ratio,"[2]; final conc. 100 nM, about 6 hours, ratio to 0 nM",6.9
same,Amount of luminescence by firefly luciferase (from pGV-Ya-XREx5) Measured value,[2]; [7],3.12 x 10^2
same,Amount of luminescence by firefly luciferase (from pGV-Ya-XREx5) Ratio,"[2]; final conc. 1000 nM, about 6 hours, ratio to 0 nM",12
same,Amount of luminescence by firefly luciferase (from pGV-Ya-XREx5) Measured value,[2]; [8],4.54 x 10^2
same,Amount of luminescence by firefly luciferase (from pGV-Ya-XREx5) Ratio,"[2]; final conc. 10000 nM, about 6 hours, ratio to 0 nM",18
same,Amount of luminescence by firefly luciferase (from pGV-Ya-XREx5) Measured value,[2]; [9],5.76 x 10^2
same,Amount of luminescence by firefly luciferase (from pGV-Ya-XREx5) Ratio,"[2]; final conc. 50000 nM, about 6 hours, ratio to 0 nM",23
same,"viability at 6 h, 0.001 µM","[3]; final conc. 1 nM, about 6 hours, ratio to 0 nM, read-out: Amount of luminescence by sea pansy luciferase (from pRL-TK) Ratio",90%
same,"viability at 6 h, 0.01 µM","[3]; final conc. 10 nM, about 6 hours, ratio to 0 nM, read-out: Amount of luminescence by sea pansy luciferase (from pRL-TK) Ratio",90%
same,"viability at 6 h, 0.1 µM","[3]; final conc. 100 nM, about 6 hours, ratio to 0 nM, read-out: Amount of luminescence by sea pansy luciferase (from pRL-TK) Ratio",80%
same,"viability at 6 h, 1 µM","[3]; final conc. 1000 nM, about 6 hours, ratio to 0 nM, read-out: Amount of luminescence by sea pansy luciferase (from pRL-TK) Ratio",90%
same,"viability at 6 h, 10 µM","[3]; final conc. 10000 nM, about 6 hours, ratio to 0 nM, read-out: Amount of luminescence by sea pansy luciferase (from pRL-TK) Ratio",80%
same,"viability at 6 h, 50 µM","[3]; final conc. 50000 nM, about 6 hours, ratio to 0 nM, read-out: Amount of luminescence by sea pansy luciferase (from pRL-TK) Ratio",80%
"C[C@@H]1C[C@H]2[C@@H]3CCC4=CC(=O)C=C[C@]4(C)[C@@]3(F)[C@@H](O)C[C@]2(C)[C@@]1(O)C(=O)CO [Dexamethasone, dexamethasone]",Amount of luminescence by firefly luciferase (from pGV-Ya-XREx5) Measured value,[2]; [4],3.71 x 10^2
same,Amount of luminescence by firefly luciferase (from pGV-Ya-XREx5) Measured value,[2]; [5],3.54 x 10^2
same,Amount of luminescence by firefly luciferase (from pGV-Ya-XREx5) Measured value,[2]; [6],3.39 x 10^2
same,Amount of luminescence by firefly luciferase (from pGV-Ya-XREx5) Measured value,[2]; [7],3.22 x 10^2
same,Amount of luminescence by firefly luciferase (from pGV-Ya-XREx5) Measured value,[2]; [8],3.53 x 10^2
same,Amount of luminescence by firefly luciferase (from pGV-Ya-XREx5) Measured value,[2]; [9],3.73 x 10^2
same,Amount of luminescence by firefly luciferase (from pGV-Ya-XREx5) Ratio,"[2]; hepa1c1c7 cells, 6 h, 0.001 µM",1.3
same,Amount of luminescence by firefly luciferase (from pGV-Ya-XREx5) Ratio,"[2]; hepa1c1c7 cells, 6 h, 0.01 µM",1.2
same,Amount of luminescence by firefly luciferase (from pGV-Ya-XREx5) Ratio,"[2]; hepa1c1c7 cells, 6 h, 0.1 µM",1.2
same,Amount of luminescence by firefly luciferase (from pGV-Ya-XREx5) Ratio,"[2]; hepa1c1c7 cells, 6 h, 1 µM",1.1
same,Amount of luminescence by firefly luciferase (from pGV-Ya-XREx5) Ratio,"[2]; hepa1c1c7 cells, 6 h, 10 µM",1.2
same,Amount of luminescence by firefly luciferase (from pGV-Ya-XREx5) Ratio,"[2]; hepa1c1c7 cells, 6 h, 50 µM",1.3
same,"viability at 6 h, 0.001 µM",[3],100%
same,"viability at 6 h, 0.01 µM",[3],100%
same,"viability at 6 h, 0.1 µM",[3],90%
same,"viability at 6 h, 1 µM",[3],80%
same,"viability at 6 h, 10 µM",[3],100%
same,"viability at 6 h, 50 µM",[3],110%
